# Test system: A. baumannii 1650
# Experiment: MIC assay, strain 1650
# Assay type: cell-based, Acinetobacter baumannii
# Conditions: Acinetobacter baumannii, 1650, read-out: 1650 MIC
# Method: (§1) MIC and MBC assays were performed in this study as documented by us previously.^17,23,24,25 The A. baumannii strains used are detailed in Table 7.
row,Compound,MIC [µM]
1,"CNc1nc(NCc2ccccc2)nc2ccc(-c3ccccc3)cc12 [Compound 31, N^2-Benzyl-N^4-methyl-6-phenylquinazoline-2,4-diamine]",20
2,"CNc1nc(NCc2ccccc2)nc2ccc(-c3ccco3)cc12 [Compound 32, N^2-Benzyl-6-(furan-2-yl)-N^4-methylquinazoline-2,4-diamine]",> 50

# Same assay, conditions: Acinetobacter baumannii; strain 1650; Table 2; read-out: 1650 MIC
row,Compound,MIC [µM]
1,"CNc1nc(NCc2ccccc2)nc2cc(Br)ccc12 [Compound 6, N^2-Benzyl-7-bromo-N^4-methylquinazoline-2,4-diamine]",> 50
2,"CNc1nc(NCc2ccccc2)nc2cc(C)ccc12 [Compound 7, N^2-Benzyl-N^4,7-dimethylquinazoline-2,4-diamine]",50
3,"CNc1nc(NCc2ccccc2)nc2ccccc12 [Compound 8, N^2-benzyl-N^4-methylquinazolin-2,4-diamine]",> 50

# Same assay, conditions: Acinetobacter baumannii; strain 1650; Tables 1, 3, 4, 5 and footnotes; read-out: 1650 MIC
row,Compound,MIC [µM]
1,"CNc1nc(NCc2ccccc2)nc2ccc(Cl)cc12 [Compound 1, N^2-Benzyl-6-chloro-N^4-methylquinazoline-2,4-diamine]",15
2,"CNc1nc(NCc2ccccc2)nc2cc(Cl)ccc12 [Compound 2, N^2-Benzyl-7-chloro-N^4-methylquinazoline-2,4-diamine]",> 50
3,"CNc1nc(NCc2ccccc2)nc2ccc(OC)cc12 [Compound 3, N^2-Benzyl-6-methoxy-N^4-methylquinazoline-2,4-diamine]",50
4,"CNc1nc(NCc2ccccc2)c2cc(Cl)ccc2n1 [Compound 9, N^4-Benzyl-6-chloro-N^2-methylquinazoline-2,4-diamine]",50
5,"CNc1nc(NCc2ccccc2)c2cc(Br)ccc2n1 [Compound 10, N^4-Benzyl-6-bromo-N^2-methylquinazoline-2,4-diamine]",> 50
6,"CNc1nc(NCc2ccccc2)c2cc(C)ccc2n1 [Compound 11, N^4-Benzyl-N^2,6-dimethylquinazoline-2,4-diamine]",> 50
7,"CNc1nc(NCc2ccccc2)c2cc(OC)ccc2n1 [Compound 12, N^4-Benzyl-6-methoxy-N^2-methylquinazoline-2,4-diamine]",> 50

# Test system: A. baumannii 1403
# Experiment: MIC assay, strain 1403
# Assay type: cell-based, Acinetobacter baumannii
# Conditions: Acinetobacter baumannii, 1403, read-out: 1403 MIC
# Method: as §1
row,Compound,MIC [µM]
1,"CNc1nc(NCc2ccccc2)nc2ccc(-c3ccccc3)cc12 [Compound 31, N^2-Benzyl-N^4-methyl-6-phenylquinazoline-2,4-diamine]",30
2,"CNc1nc(NCc2ccccc2)nc2ccc(-c3ccco3)cc12 [Compound 32, N^2-Benzyl-6-(furan-2-yl)-N^4-methylquinazoline-2,4-diamine]",40

# Same assay, conditions: Acinetobacter baumannii; strain 1403; Table 2; read-out: 1403 MIC
row,Compound,MIC [µM]
1,"CNc1nc(NCc2ccccc2)nc2cc(Br)ccc12 [Compound 6, N^2-Benzyl-7-bromo-N^4-methylquinazoline-2,4-diamine]",> 50
2,"CNc1nc(NCc2ccccc2)nc2cc(C)ccc12 [Compound 7, N^2-Benzyl-N^4,7-dimethylquinazoline-2,4-diamine]",50
3,"CNc1nc(NCc2ccccc2)nc2ccccc12 [Compound 8, N^2-benzyl-N^4-methylquinazolin-2,4-diamine]",> 50

# Same assay, conditions: Acinetobacter baumannii; strain 1403; Tables 1, 3, 4, 5 and footnotes; read-out: 1403 MIC
row,Compound,MIC [µM]
1,"CNc1nc(NCc2ccccc2)nc2ccc(Cl)cc12 [Compound 1, N^2-Benzyl-6-chloro-N^4-methylquinazoline-2,4-diamine]",50
2,"CNc1nc(NCc2ccccc2)nc2cc(Cl)ccc12 [Compound 2, N^2-Benzyl-7-chloro-N^4-methylquinazoline-2,4-diamine]",> 50
3,"CNc1nc(NCc2ccccc2)nc2ccc(OC)cc12 [Compound 3, N^2-Benzyl-6-methoxy-N^4-methylquinazoline-2,4-diamine]",> 50
4,"CNc1nc(NCc2ccccc2)c2cc(Cl)ccc2n1 [Compound 9, N^4-Benzyl-6-chloro-N^2-methylquinazoline-2,4-diamine]",> 50
5,"CNc1nc(NCc2ccccc2)c2cc(Br)ccc2n1 [Compound 10, N^4-Benzyl-6-bromo-N^2-methylquinazoline-2,4-diamine]",> 50
6,"CNc1nc(NCc2ccccc2)c2cc(C)ccc2n1 [Compound 11, N^4-Benzyl-N^2,6-dimethylquinazoline-2,4-diamine]",> 50
7,"CNc1nc(NCc2ccccc2)c2cc(OC)ccc2n1 [Compound 12, N^4-Benzyl-6-methoxy-N^2-methylquinazoline-2,4-diamine]",> 50

# Test system: A. baumannii 1646
# Experiment: MIC assay, strain 1646
# Assay type: cell-based, Acinetobacter baumannii
# Conditions: Acinetobacter baumannii, 1646, read-out: 1646 MIC
# Method: as §1
row,Compound,MIC [µM]
1,"CNc1nc(NCc2ccccc2)nc2ccc(-c3ccccc3)cc12 [Compound 31, N^2-Benzyl-N^4-methyl-6-phenylquinazoline-2,4-diamine]",10
2,"CNc1nc(NCc2ccccc2)nc2ccc(-c3ccco3)cc12 [Compound 32, N^2-Benzyl-6-(furan-2-yl)-N^4-methylquinazoline-2,4-diamine]",25

# Same assay, conditions: Acinetobacter baumannii; strain 1646; Table 2; read-out: 1646 MIC
row,Compound,MIC [µM]
1,"CNc1nc(NCc2ccccc2)nc2cc(Br)ccc12 [Compound 6, N^2-Benzyl-7-bromo-N^4-methylquinazoline-2,4-diamine]",6
2,"CNc1nc(NCc2ccccc2)nc2cc(C)ccc12 [Compound 7, N^2-Benzyl-N^4,7-dimethylquinazoline-2,4-diamine]",12
3,"CNc1nc(NCc2ccccc2)nc2ccccc12 [Compound 8, N^2-benzyl-N^4-methylquinazolin-2,4-diamine]",50

# Same assay, conditions: Acinetobacter baumannii; strain 1646; Tables 1, 3, 4, 5 and footnotes; read-out: 1646 MIC
row,Compound,MIC [µM]
1,"CNc1nc(NCc2ccccc2)nc2ccc(Cl)cc12 [Compound 1, N^2-Benzyl-6-chloro-N^4-methylquinazoline-2,4-diamine]",2
2,"CNc1nc(NCc2ccccc2)nc2cc(Cl)ccc12 [Compound 2, N^2-Benzyl-7-chloro-N^4-methylquinazoline-2,4-diamine]",6
3,"CNc1nc(NCc2ccccc2)nc2ccc(OC)cc12 [Compound 3, N^2-Benzyl-6-methoxy-N^4-methylquinazoline-2,4-diamine]",2
4,"CNc1nc(NCc2ccccc2)c2cc(Cl)ccc2n1 [Compound 9, N^4-Benzyl-6-chloro-N^2-methylquinazoline-2,4-diamine]",4
5,"CNc1nc(NCc2ccccc2)c2cc(Br)ccc2n1 [Compound 10, N^4-Benzyl-6-bromo-N^2-methylquinazoline-2,4-diamine]",2
6,"CNc1nc(NCc2ccccc2)c2cc(C)ccc2n1 [Compound 11, N^4-Benzyl-N^2,6-dimethylquinazoline-2,4-diamine]",6
7,"CNc1nc(NCc2ccccc2)c2cc(OC)ccc2n1 [Compound 12, N^4-Benzyl-6-methoxy-N^2-methylquinazoline-2,4-diamine]",6

# Test system: A. baumannii 1649
# Experiment: MIC assay, strain 1649
# Assay type: cell-based, Acinetobacter baumannii
# Conditions: Acinetobacter baumannii, 1649, read-out: 1649 MIC
# Method: as §1
row,Compound,MIC [µM]
1,"CNc1nc(NCc2ccccc2)nc2ccc(-c3ccccc3)cc12 [Compound 31, N^2-Benzyl-N^4-methyl-6-phenylquinazoline-2,4-diamine]",20
2,"CNc1nc(NCc2ccccc2)nc2ccc(-c3ccco3)cc12 [Compound 32, N^2-Benzyl-6-(furan-2-yl)-N^4-methylquinazoline-2,4-diamine]",> 50

# Same assay, conditions: Acinetobacter baumannii; strain 1649; Table 2; read-out: 1649 MIC
row,Compound,MIC [µM]
1,"CNc1nc(NCc2ccccc2)nc2cc(Br)ccc12 [Compound 6, N^2-Benzyl-7-bromo-N^4-methylquinazoline-2,4-diamine]",25
2,"CNc1nc(NCc2ccccc2)nc2cc(C)ccc12 [Compound 7, N^2-Benzyl-N^4,7-dimethylquinazoline-2,4-diamine]",25
3,"CNc1nc(NCc2ccccc2)nc2ccccc12 [Compound 8, N^2-benzyl-N^4-methylquinazolin-2,4-diamine]",> 50

# Same assay, conditions: Acinetobacter baumannii; strain 1649; Tables 1, 3, 4, 5 and footnotes; read-out: 1649 MIC
row,Compound,MIC [µM]
1,"CNc1nc(NCc2ccccc2)nc2ccc(Cl)cc12 [Compound 1, N^2-Benzyl-6-chloro-N^4-methylquinazoline-2,4-diamine]",25
2,"CNc1nc(NCc2ccccc2)nc2cc(Cl)ccc12 [Compound 2, N^2-Benzyl-7-chloro-N^4-methylquinazoline-2,4-diamine]",30
3,"CNc1nc(NCc2ccccc2)nc2ccc(OC)cc12 [Compound 3, N^2-Benzyl-6-methoxy-N^4-methylquinazoline-2,4-diamine]",25
4,"CNc1nc(NCc2ccccc2)c2cc(Cl)ccc2n1 [Compound 9, N^4-Benzyl-6-chloro-N^2-methylquinazoline-2,4-diamine]",50
5,"CNc1nc(NCc2ccccc2)c2cc(Br)ccc2n1 [Compound 10, N^4-Benzyl-6-bromo-N^2-methylquinazoline-2,4-diamine]",50
6,"CNc1nc(NCc2ccccc2)c2cc(C)ccc2n1 [Compound 11, N^4-Benzyl-N^2,6-dimethylquinazoline-2,4-diamine]",> 50
7,"CNc1nc(NCc2ccccc2)c2cc(OC)ccc2n1 [Compound 12, N^4-Benzyl-6-methoxy-N^2-methylquinazoline-2,4-diamine]",> 50

# Test system: A. baumannii 1651
# Experiment: MIC assay, strain 1651
# Assay type: cell-based, Acinetobacter baumannii
# Conditions: Acinetobacter baumannii, 1651, read-out: 1651 MIC
# Method: as §1
row,Compound,MIC [µM]
1,"CNc1nc(NCc2ccccc2)nc2ccc(-c3ccccc3)cc12 [Compound 31, N^2-Benzyl-N^4-methyl-6-phenylquinazoline-2,4-diamine]",2
2,"CNc1nc(NCc2ccccc2)nc2ccc(-c3ccco3)cc12 [Compound 32, N^2-Benzyl-6-(furan-2-yl)-N^4-methylquinazoline-2,4-diamine]",15

# Same assay, conditions: Acinetobacter baumannii; strain 1651; Table 2; read-out: 1651 MIC
row,Compound,MIC [µM]
1,"CNc1nc(NCc2ccccc2)nc2cc(Br)ccc12 [Compound 6, N^2-Benzyl-7-bromo-N^4-methylquinazoline-2,4-diamine]",10
2,"CNc1nc(NCc2ccccc2)nc2cc(C)ccc12 [Compound 7, N^2-Benzyl-N^4,7-dimethylquinazoline-2,4-diamine]",12
3,"CNc1nc(NCc2ccccc2)nc2ccccc12 [Compound 8, N^2-benzyl-N^4-methylquinazolin-2,4-diamine]",> 50

# Same assay, conditions: Acinetobacter baumannii; strain 1651; Tables 1, 3, 4, 5 and footnotes; read-out: 1651 MIC
row,Compound,MIC [µM]
1,"CNc1nc(NCc2ccccc2)nc2ccc(Cl)cc12 [Compound 1, N^2-Benzyl-6-chloro-N^4-methylquinazoline-2,4-diamine]",6
2,"CNc1nc(NCc2ccccc2)nc2cc(Cl)ccc12 [Compound 2, N^2-Benzyl-7-chloro-N^4-methylquinazoline-2,4-diamine]",10
3,"CNc1nc(NCc2ccccc2)nc2ccc(OC)cc12 [Compound 3, N^2-Benzyl-6-methoxy-N^4-methylquinazoline-2,4-diamine]",10
4,"CNc1nc(NCc2ccccc2)c2cc(Cl)ccc2n1 [Compound 9, N^4-Benzyl-6-chloro-N^2-methylquinazoline-2,4-diamine]",6
5,"CNc1nc(NCc2ccccc2)c2cc(Br)ccc2n1 [Compound 10, N^4-Benzyl-6-bromo-N^2-methylquinazoline-2,4-diamine]",> 50
6,"CNc1nc(NCc2ccccc2)c2cc(C)ccc2n1 [Compound 11, N^4-Benzyl-N^2,6-dimethylquinazoline-2,4-diamine]",12
7,"CNc1nc(NCc2ccccc2)c2cc(OC)ccc2n1 [Compound 12, N^4-Benzyl-6-methoxy-N^2-methylquinazoline-2,4-diamine]",8

# Test system: A. baumannii
# Experiment: MIC assay, A. baumannii isolates (strain not given)
# Assay type: cell-based, Acinetobacter baumannii
# Conditions: Acinetobacter baumannii; strain not given; read-out: MIC
# Method: as §1
row,Compound,MIC [µM]
1,"CNc1nc(NCc2ccccc2)nc2ccccc12 [Compound 8, N^2-benzyl-N^4-methylquinazolin-2,4-diamine]",≥ 50

# Test system: A. baumannii 1652
# Experiment: MIC assay, strain 1652
# Assay type: cell-based, Acinetobacter baumannii
# Conditions: Acinetobacter baumannii, 1652, read-out: 1652 MIC
# Method: as §1
row,Compound,MIC [µM]
1,"CNc1nc(NCc2ccccc2)nc2ccc(-c3ccccc3)cc12 [Compound 31, N^2-Benzyl-N^4-methyl-6-phenylquinazoline-2,4-diamine]",50
2,"CNc1nc(NCc2ccccc2)nc2ccc(-c3ccco3)cc12 [Compound 32, N^2-Benzyl-6-(furan-2-yl)-N^4-methylquinazoline-2,4-diamine]",> 50

# Same assay, conditions: Acinetobacter baumannii; strain 1652; Table 2; read-out: 1652 MIC
row,Compound,MIC [µM]
1,"CNc1nc(NCc2ccccc2)nc2cc(Br)ccc12 [Compound 6, N^2-Benzyl-7-bromo-N^4-methylquinazoline-2,4-diamine]",> 50
2,"CNc1nc(NCc2ccccc2)nc2cc(C)ccc12 [Compound 7, N^2-Benzyl-N^4,7-dimethylquinazoline-2,4-diamine]",35
3,"CNc1nc(NCc2ccccc2)nc2ccccc12 [Compound 8, N^2-benzyl-N^4-methylquinazolin-2,4-diamine]",> 50

# Same assay, conditions: Acinetobacter baumannii; strain 1652; Tables 1, 3, 4, 5 and footnotes; read-out: 1652 MIC
row,Compound,MIC [µM]
1,"CNc1nc(NCc2ccccc2)nc2ccc(Cl)cc12 [Compound 1, N^2-Benzyl-6-chloro-N^4-methylquinazoline-2,4-diamine]",20
2,"CNc1nc(NCc2ccccc2)nc2cc(Cl)ccc12 [Compound 2, N^2-Benzyl-7-chloro-N^4-methylquinazoline-2,4-diamine]",50
3,"CNc1nc(NCc2ccccc2)nc2ccc(OC)cc12 [Compound 3, N^2-Benzyl-6-methoxy-N^4-methylquinazoline-2,4-diamine]",30
4,"CNc1nc(NCc2ccccc2)c2cc(Cl)ccc2n1 [Compound 9, N^4-Benzyl-6-chloro-N^2-methylquinazoline-2,4-diamine]",> 50
5,"CNc1nc(NCc2ccccc2)c2cc(Br)ccc2n1 [Compound 10, N^4-Benzyl-6-bromo-N^2-methylquinazoline-2,4-diamine]",> 50
6,"CNc1nc(NCc2ccccc2)c2cc(C)ccc2n1 [Compound 11, N^4-Benzyl-N^2,6-dimethylquinazoline-2,4-diamine]",> 50
7,"CNc1nc(NCc2ccccc2)c2cc(OC)ccc2n1 [Compound 12, N^4-Benzyl-6-methoxy-N^2-methylquinazoline-2,4-diamine]",> 50
